# Data taken from patent US9278915B2, “Agonists of GPR40” (CONNEXIOS LIFE SCIENCES PVT LTD, priority 2010, dated 2016).
# Target: T1, hGPR40 (Homo sapiens, UniProt O14842)
# T1 construct: expressed in transfected cells
# Assay: Calcium flux assay to detect GPR40 activation
# Assay type: cell-based
# Details: CHO-K cells stably expressing hGPR40; Fluo-4 NW; read for 4 min at 5 s intervals
# Procedure: Biological Activity Calium Flux Assay to Detect GPR40 Activation: CHO-K cells stably expressing hGPR40 were selected in a media containing Neomycin/G418. The cells were plated at a concentration of 20,000 cells per well in black 96-well clear bottom tissue culture treated plates. The cells were cultured for 24 h at 37° C. in a humidified 5% CO2 air environment to allow for protein expression. The next day, after removal of media from wells, Fluo-4 NW (Invitrogen) is added at 100 ul/well and the cells were incubated for 30 min at 37° C. and for a further 30 min at RT. All test compounds were diluted to appropriate concentrations in HEPES buffer. Compounds were added to the cells and the wells were read in the BioTEK synergy reader and readings were taken for 4 min with an interval of 5 s.
# T1 sequence (O14842 whole entry): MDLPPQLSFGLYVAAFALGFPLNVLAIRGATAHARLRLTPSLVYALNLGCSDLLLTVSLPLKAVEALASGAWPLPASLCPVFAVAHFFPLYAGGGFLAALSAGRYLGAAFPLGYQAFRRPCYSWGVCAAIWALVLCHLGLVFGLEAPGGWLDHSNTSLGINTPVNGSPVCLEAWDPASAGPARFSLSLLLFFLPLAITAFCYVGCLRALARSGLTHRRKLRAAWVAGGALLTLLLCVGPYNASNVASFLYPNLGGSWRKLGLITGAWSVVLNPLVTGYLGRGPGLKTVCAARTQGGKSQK
row,SMILES,EC50 [nM]
1,"CO/N=C(\COc1ccc(COc2ccc(CCC(=O)O)c(OC(C)C)c2)cc1)c1ccccc1 [Compound 60, 3-{4-[(4-{[(2Z)-2-(Methoxyimino)-2-phenylethyl]oxy}benzyl)oxy]-2-(propan-2-yloxy)phenyl}propanoic acid]",> 100
2,"CO/N=C(\COc1ccc(COc2ccc([C@H]3C[C@H]3C(=O)O)cc2)cc1)c1ccc(C#N)cc1 [Compound 63, (1R,2S)-2-{4-[(4-{[(2Z)-2-(4-Cyanophenyl)-2-(methoxyimino)ethyl]oxy}benzyl)oxy]phenyl}cyclopropanecarboxylic acid]",> 100
3,"CO/N=C(\COc1ccc(COc2ccc(CCC(=O)O)c(-c3cc(C)on3)c2)cc1)c1ccccc1 [Compound 65, 3-{4-[(4-{[(2Z)-2-(Methoxyimino)-2-phenylethyl]oxy}benzyl)oxy]-2-(5-methyl-1,2-oxazol-3-yl)phenyl}propanoic acid]",> 100
4,"CO/N=C(\COc1ccc(COc2ccc(C(CC(=O)O)c3c(C)noc3C)cc2)cc1)c1ccccc1 (stereo not drawn) [Compound 67, 3-(3,5-Dimethyl-1,2-oxazol-4-yl)-3-{4-[(4-{[(2E,2Z)-2-(methoxyimino)-2-phenylethyl]oxy}benzyl)oxy]phenyl}propanoic acid]",> 100
5,"CO/N=C(\COc1ccc(COc2ccc(/C(CC(=O)O)=N\OC)cc2)cc1)c1ccccc1 [Compound 68, (3E,3Z)-3-(Methoxyimino)-3-{4-[(4-{[(2Z)-2-(methoxyimino)-2-phenylethyl]oxy}benzyl)oxy]phenyl}propanoic acid]",> 100
6,"CO/N=C(\COc1ccc(COc2ccc(-c3c(C)noc3CC(=O)O)cc2)cc1)c1ccccc1 [Compound 69, (4-{4-[(4-{[(2Z)-2-(Methoxyimino)-2-phenylethyl]oxy}benzyl)oxy]phenyl}-3-methyl-1,2-oxazol-5-yl)acetic acid]",> 100
7,"CO/N=C(\COc1ccc(COc2ccc(CCC(=O)O)c(F)c2)cc1)c1ccccc1 [Compound 71, Sodium 3-{2-fluoro-4-[(4-{[(2Z)-2-(methoxyimino)-2-phenylethyl]oxy}benzyl)oxy]phenyl}propanoate]",> 100
8,"CO/N=C(\COc1ccc(CNc2ccc(-c3onc(C)c3CCC(=O)O)cc2)cc1)c1ccc(C#N)cc1 [Compound 72, 3-(5-{4-[(4-{[(2E,2Z)-2-(4-Cyanophenyl)-2-(methoxyimino)ethyl]oxy}benzyl)amino]phenyl}-3-methyl-1,2-oxazol-4-yl)propanoic acid]",> 100
9,"CO/N=C(\COc1ccc(COc2ccc(CCC(=O)O)c(-c3c(C)noc3C)c2)cc1)c1ccccc1 [Compound 84, 3-{2-(3,5-Dimethyl-1,2-oxazol-4-yl)-4-[(4-{[(2E,2Z)-2-(methoxyimino)-2-phenylethyl]oxy}benzyl)oxy]phenyl}propanoic acid]",> 100
10,"CO/N=C(\COc1ccc(COc2cc(F)c(CCC(=O)O)cc2F)cc1)c1ccccc1 [Compound 86, 3-{2,5-Difluoro-4-[(4-{[(22)-2-(methoxyimino)-2-phenylethyl]oxy}benzyl)oxy]phenyl}propanoic acid]",> 100
11,"CO/N=C(\COc1ccc(COc2ccc(C(CC(=O)O)C3CC3)cc2)cc1)c1ccccc1 (stereo not drawn) [Compound 87, 3-Cyclopropyl-3-{4-[(4-{[(2Z)-2-(methoxyimino)-2-phenylethyl]oxy}benzyl)oxy]phenyl}propanoic acid]",> 100
12,"CO/N=C(\COc1ccc(COc2ccc(CCC(=O)O)c(OCC#N)c2)cc1)c1ccccc1 [Compound 88, 3-{2-(Cyanomethoxy)-4-[(4-{[(2Z)-2-(methoxyimino)-2-phenylethyl]oxy}benzyl)oxy]phenyl}propanoic acid]",> 100
13,"CCOC(=O)CCc1ccc(OCc2ccc(OC/C(=N\OC)c3ccccc3)cc2)cc1OCC(=O)O [Compound 90, {2-(3-Ethoxy-3-oxopropyl)-5-[(4-{[(2E,2Z)-2-(methoxyimino)-2-phenylethyl]oxy}benzyl)oxy]phenoxy}acetic acid]",> 100
14,"CCCC(CC(=O)O)c1ccc(OCc2ccc(OC/C(=N\OC)c3ccccc3)cc2)cc1 (stereo not drawn) [Compound 91, 3-{4-[(4-{[(2Z)-2-(Methoxyimino)-2-phenylethyl]oxy}benzyl)oxy]phenyl}hexanoic acid]",> 100
15,"CO/N=C(\COc1ccc(COc2ccc(CCC(=O)O)cc2)cc1)c1ccc(S(C)(=O)=O)cc1 [Compound 92, 3-(4-{[4-({(2Z)-2-(Methoxyimino)-2-[4-(methylsulfonyl)phenyl]ethyl}oxy)benzyl]oxy}phenyl)propanoic acid]",> 100
16,"CO/N=C(\COc1ccc(COc2ccc(C(CC(=O)O)C(N)=O)cc2)cc1)c1ccccc1 (stereo not drawn) [Compound 93, 4-Amino-3-{4-[(4-{[(2Z)-2-(methoxyimino)-2-phenylethyl]oxy}benzyl)oxy]phenyl}-4-oxobutanoic acid]",> 100
17,"CO/N=C(\COc1ccc(COc2ccc(CCC(=O)O)cc2OC)cc1)c1ccccc1 [Compound 94, 3-{3-Methoxy-4-[(4-{[(2Z)-2-(methoxyimino)-2-phenylethyl]oxy}benzyl)oxy]phenyl}propanoic acid]",> 100
18,"CO/N=C(\COc1ccc(COc2ccc(/C=C/C(=O)O)c(OC)c2)cc1)c1ccccc1 [Compound 95, (2E,2Z)-3-{2-Methoxy-4-[(4-{[(2Z)-2-(methoxyimino)-2-phenylethyl]oxy}benzyl)oxy]phenyl}prop-2-enoic acid]",> 100
19,"CO/N=C(\COc1ccc(COc2ccc(CCC(=O)O)c(O)c2)cc1)c1ccccc1 [Compound 96, 3-{2-Hydroxy-4-[(4-{[(2Z)-2-(methoxyimino)-2-phenylethyl]oxy}benzyl)oxy]phenyl}propanoic acid]",> 100
20,"CO/N=C(\COc1ccc(COc2ccc(/C=C/C(=O)O)c(-c3cc(C)on3)c2)cc1)c1ccccc1 [Compound 97, (2E,2Z)-3-{4-[(4-{[(2Z)-2-(Methoxyimino)-2-phenylethyl]oxy}benzyl)oxy]-2-(5-methyl-1,2-oxazol-3-yl)phenyl}prop-2-enoic acid]",> 100
21,"CO/N=C(\COc1ccc(COc2ccc(C(C#N)CC(=O)O)cc2)cc1)c1ccc2c(c1)CCC2 (stereo not drawn) [Compound 103, 3-Cyano-3-{4-[(4-{[(2Z)-2-(2,3-dihydro-1H-inden-5-yl)-2-(methoxyimino)ethyl]oxy}benzyl)oxy]phenyl}propanoic acid]",10 to 100
22,"CO/N=C(/COc1ccc(COc2ccc(C(C#N)CC(=O)O)cc2)cc1)C1CC1 (stereo not drawn) [Compound 104, 3-Cyano-3-{4-[(4-{[(2E)-2-cyclopropyl-2-(methoxyimino)ethyl]oxy}benzyl)oxy]phenyl}propanoic acid]",> 100

# Other lines, results leading:
row,EC50 [nM],SMILES
1,10 to 100,"CO/N=C(\COc1ccc(COc2ccc(C(C#N)CC(=O)O)c(C)c2)cc1)c1ccccc1 (stereo not drawn) [Compound 62, 3-Cyano-3-{4-[(4-{[(2Z)-2-(methoxyimino)-2-phenylethyl]oxy}benzyl)oxy]-2-methylphenyl}propanoic acid]"
2,10 to 100,"CO/N=C(\COc1ccc(COc2ccc([C@H]3C[C@@H]3C(=O)O)cc2)cc1)c1ccc(C#N)cc1 [Compound 64, (1S,2S)-2-{4-[(4-{[(2E,2Z)-2-(4-Cyanophenyl)-2-(methoxyimino)ethyl]oxy}benzyl)oxy]phenyl}cyclopropanecarboxylic acid]"
3,< 10,"CO/N=C(\COc1ccc(COc2ccc(C(C#N)CC(=O)O)cc2)cc1)c1ccc(OC)cc1 (stereo not drawn) [Compound 66, 3-Cyano-3-{4-[(4-{[(2Z)-2-(methoxyimino)-2-(4-methoxyphenyl)ethyl]oxy}benzyl)oxy]phenyl}propanoic acid]"
4,10 to 100,"CO/N=C(\COc1ccc(COc2ccc3c(c2)OCC3CC(=O)O)cc1)c1ccccc1 (stereo not drawn) [Compound 73, {6-[(4-{[(2Z)-2-(Methoxyimino)-2-phenylethyl]oxy}benzyl)oxy]-2,3-dihydro-1-benzofuran-3-yl}acetic acid]"
5,10 to 100,"CO/N=C(\COc1ccc(COc2ccc(/C(C#N)=C/C(=O)O)cc2)cc1)c1ccccc1 [Compound 76, (2Z)-3-Cyano-3-{4-[(4-{[(2Z)-2-(methoxyimino)-2-phenylethyl]oxy}benzyl)oxy]phenyl}prop-2-enoic acid]"
6,< 10,"CO/N=C(\COc1ccc(COc2ccc(C(C#N)CC(=O)O)c(F)c2)cc1)c1ccccc1 (stereo not drawn) [Compound 77, 3-Cyano-3-{2-fluoro-4-[(4-{[(2Z)-2-(methoxyimino)-2-phenylethyl]oxy}benzyl)oxy]phenyl}propanoic acid]"
7,10 to 100,"N#CC(CC(=O)O)c1ccc(OCc2ccc(OC/C(=N\O)c3ccccc3)cc2)cc1 (stereo not drawn) [Compound 78, 3-Cyano-3-{4-[(4-{[(2E,2Z)-2-(hydroxyimino)-2-phenylethyl]oxy}benzyl)oxy]phenyl}propanoic acid]"
8,10 to 100,"CO/N=C(\COc1ccc(COc2ccc(C(C#N)CC(=O)O)c(OC)c2)cc1)c1ccccc1 (stereo not drawn) [Compound 83, 3-Cyano-3-{2-methoxy-4-[(4-{[(2Z)-2-(methoxyimino)-2-phenylethyl]oxy}benzyl)oxy]phenyl}propanoic acid]"
9,< 10,"CC#CC(CC(=O)O)c1ccc(OCc2ccc(OC/C(=N\OC)c3ccccc3)cc2)cc1 (stereo not drawn) [Compound 85, 3-{4-[(4-{[(2Z)-2-(Methoxyimino)-2-phenylethyl]oxy}benzyl)oxy]phenyl}hex-4-ynoic acid]"
10,10 to 100,"CO/N=C(\COc1ccc(COc2ccc(C(C#N)CC(=O)O)cc2)cc1)C1=Cc2ccccc2C1 (stereo not drawn) [Compound 101, 3-Cyano-3-{4-[(4-{[(2Z)-2-(1H-inden-2-yl)-2-(methoxyimino)ethyl]oxy}benzyl)oxy]phenyl}propanoic acid]"
11,10 to 100,"CO/N=C(\COc1ccc(COc2ccc(C(C#N)CC(=O)O)cc2)cc1)c1ccc2c(c1)CCO2 (stereo not drawn) [Compound 102, 3-Cyano-3-{4-[(4-{[(2Z)-2-(2,3-dihydro-1-benzofuran-5-yl)-2-(methoxyimino)ethyl]oxy}benzyl)oxy]phenyl}propanoic acid]"
